We go through 1 molecule from patent US20020177575A1, “Identification of farnesyl-protein transferase as a target for systemic lupus erythematosus therapies” (priority 2001, published 2002).

One assay has as its system B6.Sle1(a+b) mice. Put plainly: Suppression of anti-nuclear autoantibody (ANA) production in B6.Sle1(a+b) mice; anti-histone-DNA ANA in sera by ELISA. The following applies: daily intraperitoneal injection, 75 mg/kg body weight for 4 weeks, sera before, during and after treatment. In kind it is in vivo, mouse. Here is the method: T0 represents the OD value for measuring the titer of anti-Histone/DNA antibodies before treatment. T represents the OD value for measuring the titer of anti-Histone/DNA antibodies at a time point during or after treatment. Each point represents Mean±SE. Mice in control group were given vehicle (Tricaprylin) only.
To study whether POH can inhibit anti-nuclear autoantibody (ANA) production, the inventors treated B6.Sle1(a+b) mice by daily intraperitoneal injection of POH at a dose of 75 mg/kg body weight for 4 weeks. Sera were collected before, during, and after treatment. Levels of anti-histone-DNA ANA were determined by ELISA.

For assay [1], the system named is ras protein farnesylation. The following applies: has been shown (prior knowledge); cited from earlier work.

Turning to `C=C(C)[C@@H]1CC=C(CO)CC1` [POH, Perillyl alcohol], the “Sle1-mediated anti-histone-DNA ANA production” value with B6.Sle1(a+b) mice (FIG. 3) is listed as “can be suppressed”; in the assay with B6.Sle1(a+b) mice (FIG. 3, listed as perillyl alcohol (POH)), “Inhibitory effect”. In addition, the ras protein farnesylation entry in assay [1] is on record as “has been shown to inhibit ras protein farnesylation”.
